{
  "source": "patent US8575112B2",
  "about": "“Small peptide modulators of potassium channel trafficking” (University of Houston System, priority 2009, dated 2013)",
  "assay_type_in_all_cases": "cell-based",
  "key": {"Slo1VEDEC": {"system": "Slo1VEDEC", "experiment": "Cell-surface biotinylation assay, HEK293T cells expressing Myc-Slo1VEDEC, after peptide delivery", "conditions": "HEK293T cells expressing Myc-tagged Slo1VEDEC, 1 mg peptide delivered with PULSin, compared to R-PE control", "description": "(§1) HEK293T (human embryonic kidney) cells were grown in Dulbecco's modified Eagle's medium (Invitrogen) containing heat-inactivated 10% fetal bovine serum (FBS) and penicillin-streptomycin (Invitrogen) at 37° C. in a 5% CO2 incubator. Cells were transiently transfected for 24 to 48 hours using Lipofectamine 2000 (Invitrogen) in the serum-reduced medium OPTI-MEM, Invitrogen) following the manufacturer's instructions. The immortalized and undifferentiated mouse podocyte cell line was grown in RPMI1640 with 10% FBS supplied with 10 U/mL interferon-g (INF-γ) at 33° C. in a 5% CO2 incubator. Podocytes' differentiation was induced by removing INF-γ and switching to 37° C. in a 5% CO2 incubator for 14 days.\n(§2) Cell-surface biotinylation was carried out by labeling cells with 1 mg/mL EZ-Link Sulfo-NHS-Biotin reagents (Pierce) in PBS (137 mM NaCl, 10 mM Phosphate, 2.7 mM KCl, pH 7.4) at 4 C with gentle shaking for 1.5 hours, which was followed by incubating the labeled cells in the cold PBS containing 100 mM glycine for additional 20 minutes at 4° C. to stop the reaction. […]\n(§3) All samples were loaded and separated on 10% SDS-PAGE. […] Slo1 proteins were detected by primary antibodies, including mouse anti-Myc, mouse anti-HA, rabbit anti-VEDEC, rabbit anti-QEERL, and rabbit anti-Slo1 (APC107, Alomone labs) antibodies, as indicated. […]"}, "Slo1QEERL": {"system": "Slo1QEERL", "experiment": "Cell-surface biotinylation assay, HEK293T cells expressing Myc-Slo1QEERL, after peptide delivery", "conditions": "HEK293T cells expressing Myc-tagged Slo1QEERL by itself; 1 mg peptide delivered with PULSin; compared to R-PE control", "description": "as §1, §2, §3"}, "[1]": {"system": "heterologously and endogenously expressed Slo1 channels", "experiment": "Intracellular delivery of VEDEC-motif peptides, surface expression of Slo1 channels (summary statement)", "conditions": "intracellular delivery of peptide"}, "[2]": {"system": "endogenous Ca2+-activated K+ channels (BKCa) in podocytes", "experiment": "Whole-cell recordings from differentiated mouse podocytes after peptide delivery", "description": "FIG. 7A depicts whole cell recording analyses are carried out in differentiated mouse podocytes treated with either R-PE (control) or IREVEDEC (SEQ ID NO: 9) peptides. The recording electrode contained free Ca^2+ of 5 μM and currents are evoked by a series of depolarizing steps from a holding potential of −60 mV. Representative whole-cell current traces are shown above bar graphs Left: R-PE control (Ctrl); Right: IREVEDEC (SEQ ID NO: 9) peptides. […] Asterisk indicates p<0.05.\nas §1\nWhole cell recordings were performed in HEK293T transiently expressing different Slo1 constructs using standard methods. […]"}},
  "data": [
    {"sequence": "IREVEDEC (Octopetide modulator of Calcium activated Potassium channels) [NH2-IREVEDEC-COOH, octopeptide containing the VEDEC motif, synthesized by Peptide 2.0]", "values": [
      {"measurement": "total expression of Slo1VEDEC", "setting": "Slo1VEDEC", "value": "no effect"},
      {"measurement": "surface expression of Slo1VEDEC", "setting": "Slo1VEDEC; densitometry of immunoblots", "value": "increases"},
      {"measurement": "surface expression of Slo1QEERL", "setting": "Slo1QEERL", "value": "no effect"},
      {"measurement": "total expression of Slo1QEERL", "setting": "Slo1QEERL", "value": "no effect"},
      {"measurement": "surface expression of heterologously and endogenously expressed Slo1 (BKCa) channels", "setting": "[1]", "value": "increase"},
      {"measurement": "current through Ca2+-activated K+ channels (current density at +60 mV)", "setting": "[2]; differentiated mouse podocytes, 3 mg octopeptide with PULSin, electrode free Ca2+ 5 μM, vs R-PE control, n=33 cells, p<0.05", "value": "large increase"},
      {"measurement": "activation or deactivation kinetics of macroscopic currents", "setting": "[2]; mouse podocytes, whole-cell recording, data not shown", "value": "does not alter"}
    ]}
  ]
}
